How the values were obtained:
[1] = system: wild-type MATa strain ATCC 28383; experiment: Growth-inhibitory effect on yeast, cell viability by plating (CFU); format: cell-based, S. cerevisiae; conditions: 0.5 g/L, 5 h of exposure, plated on YPD
Experimental: A 20 mL seed culture of wild-type MATa strain ATCC 28383 was grown in SD-THUL medium (0.67 Bacto yeast nitrogen base without amino acids, 2% glucose, 0.14% yeast synthetic drop-out medium without uracil, tryptophan, histidine and leucine). The culture was grown for 24 h, and 2.5 mL of the culture was used to inoculate 7 equal batches of 50 mL fermentation medium (2% (NH4)2SO4, 2% KH2PO4, 0.1% NaCl, 0.6% MgSO4.7H2O, 0.4% yeast extract, 1 mL mineral solution [FeSO4.7H2O 0.028%, ZnSO4.7H2O 0.029%, CuSO4.5H2O 0.008%, Na2MoO4.2H2O 0.024%, CoCl2.6H2O 0.024%, MnSO4.H2O 0.017%, HCl 1 mL], 0.5 mL 50% glucose, 1.5 mL vitamin solution [biotin 0.001%, Ca-pantothenate 0.012%, inositol 0.06%, pyridoxine-HCl 0.012%, thiamine-HCl 0.012%], and 0.5 mL 10% CaCl2) in 250 mL baffled Ehrlenmeyer flasks.
In 6 flasks, nootkatol or glycosylated nootkatol (nootkatol+1 glucose) were added in final concentrations of 0.06, 0.125, and 0.5 g/L. The 7th flask was used as a control and was not treated with nootkatol or glycosylated nootkatol. The cultures were grown at 28° C. and 170 rpm, and the cell viability was measured after 5 h of exposure by plating 100 μL of 1/1000 dilution of cell culture on yeast extract peptone dextrose (YPD) plates.

[2] = In vitro de-glycosylation of nootkatol-glucoside by glycosidase enzymes, LC-MS; format: biochemical; conditions: water control, Delft fermentation medium, 2 hours
Experimental: Identical samples of 990 μl of Delft fermentation medium further comprising 0.1 mg nootkatol-glucoside (Nootkatol-Glc) were each treated with 10 μl of 12 exemplary glycosidase enzymes (listed in Table 3 below) (thus, 1% v/v) for 2 hours. After 2 hours, samples of the reaction mixture were taken, and the de-glycosylation reaction was terminated by addition of an equal volume of ethanol followed by freezing.
The resulting digested samples were analyzed by LC-MS on a BEH C18-column (100 mm×2.1 mm, 5 μm). Mobile phase A was 0.1% formic acid in water, and mobile phase B was 0.1% formic acid in acetonitrile. B concentration gradient was 0-1 min, 1%; 1-5 min, 100%; 5-7 min, 100%; 7-7.1 min, 1%; 7.1-9 min, 1%. The injection volume was 5 μL. Mass spectrometry analysis was carried out on an SQD1 detector (3.4 KV capillary, 37 V cone, 3 V extractor, 0.1 V RF lens) at a source temperature of 150° C. and desolvation temperature of 250° C., with full scan ESI+/−(100-900 amu scan range) and selective ion recording.

Question: For C=C(C)C1CCC2=CC(OC3OC(CO)C(O)C(O)C3O)CC(C)C2(C)C1 (centres unmarked) [glycosylated nootkatol], which “toxicity (cell viability)” value [1] is on record?
Answer: no toxicity was observed

Question: What about the spontaneous de-glycosylation [2] of the same compound?
Answer: weak spontaneous de-glycosylation

From patent publication US20180327723A1, “Production of Glycosylated Nootkatol in Recombinant Hosts” (Evolva SA, priority 2015, published 2018)
